Experimental data taken from patent US20210029998A1, “ACIDIC ANTIMICROBIAL COMPOSITION” (The Procter & Gamble Company, priority 2019, published 2021).
Where a name gives a salt, the structure may show the parent alone.

System: Staphylococcus aureus (S. aureus—ATCC #6538)
Assay: Minimum Biocidal Concentration (MBC) in suspension
Type: cell-based
Method: B) Antibacterial Efficacy (Minimum Biocidal Concentration in Suspension) The antimicrobial efficacy of the antimicrobial agent in the composition is determined by measuring its Minimum Biocidal Concentration (MBC). The MBC is defined as the lowest absolute concentration of the particular antimicrobial active which provides complete kill (zero bacterial growth). The MBC of the compositions herein is determined against the bacterium, Staphylococcus aureus (S. aureus—ATCC #6538), a gram positive bacterium, These microorganisms are representative of natural contaminants in many consumer and industrial applications. The bacteria inoculum is prepared by transferring several colonies from a Tryptone Soy Agar (TSA) plate to a saline solution (0.85% NaCl) comprising 5% of horse serum as additional soil load when indicated, the bacteria concentration in this saline solution is determined by measuring the % Transmittance at 425 nm and adjusted by either adding more bacteria or more saline solution until the % Transmittance at 425 nm is between 23-25% which corresponds to a bacteria concentration of 10^8 CFU/ml. The antimicrobial agent was added to the composition at a level of 1000 ppm, 500 ppm, or 200 ppm, or 100 ppm or 50 ppm. 200 μL of the antimicrobial hard surface cleaning composition was dosed into one well of row A of a 96 well microtiter plate. Each subsequent well (rows B to G) were dosed with 100 μL of the same hard surface cleaning composition, without the addition of the antimicrobial agent. 100 μL of the antimicrobial hard surface cleaning composition was transferred from row A to row B and mixed. 100 μL of the composition was then transferred from row B to row C and mixed, and the process repeated to row G. As such, the concentration of the antimicrobial agent underwent two-fold dilution in adjacent wells, while the concentration of the other actives in the hard surface cleaning composition remained constant across all the wells in the same column. 10 μL of the 10^8 CFU/ml bacteria suspension in saline was added to wells A to F of the microtiter plate with row G kept as a nil bacteria control. The final volume in each well was 110 μL, except for row G which comprised 100 μL of the hard surface cleaning composition and no bacteria suspension. Bacterial inoculation to each column was staggered by 30 seconds to allow for equal incubation times in all wells so that the contact time between the bacteria and the antimicrobial active for all samples was 6 mins. After this contact time, 10 μL of each test solution was transferred to 90 μL of neutraliser solution (Modified Letheen Broth+1.5% Polysorbate 80, supplied by BioMérieux) to stop the antimicrobial action of the antimicrobial active matching the stagger of the inoculation. 2 μL of this solution was plated onto a TSA plate matching the stagger of the inoculation so that all samples are exposed to the neutralizer for the same period of time. The plate is incubated at 32.5° C. for 48 h for S. aureus. MBC concentration is taken as the lowest concentration of the antimicrobial active at which no visible colony growth is observed on the TSA plate. The antibacterial efficacy of the bispyridinium alkane octenidine hydrochloride was compared to that of the quaternary ammonium compound n-alkyl dimethyl benzyl ammonium chloride/n-alkyl dimethyl ethylbenzyl ammonium chloride (BTC®2125-Stepan) in acidic compositions comprising 1% of the indicated surfactant. Compositions were acidified using either an inorganic acid (hydrochloric acid) or an organic acid (citric acid). The minimal biocidal concentration (MBC) in suspension of each antibacterial active against a gram positive bacterium (Staphylococcus aureus) was measured in the presence of 5% horse serum to mimic stressed soiled conditions. Contact time was 6 minutes except for the composition with 1% of dodecyldimethyl amine oxide that was 30 seconds.

CCCCCCCCN=c1ccn(CCCCCCCCCCn2ccc(=NCCCCCCCC)cc2)cc1 [Octenidine, octenidine dihydrochloride]
MBC (ATCC6538, 0.1 h, pH 3.83, acidic composition with 1% w/v D-glucopyranose oligomeric decyl octyl glucoside (Triton CG 50), citric acid, pH 3.83, 5% horse serum, contact time 6 minutes): 62.5 µg/mL | MBC (ATCC6538, 0.1 h, pH 3.83, acidic composition with 1% w/v cocoamidopropyl hydroxysultaine (Mackam SB 50), HCl, pH 3.83, 5% horse serum, contact time 6 minutes): 62.5 µg/mL | MBC (ATCC6538, 0.1 h, pH 3.86, acidic composition with 1% w/v C9-C11 alcohol EO8 (Neodol 91-8), HCl, pH 3.86, 5% horse serum, contact time 6 minutes): 62.5 µg/mL | MBC (ATCC6538, 0.1 h, pH 3.86, acidic composition with 1% w/v C10 EO5 alcohol ethoxylate (Lutensol ON 50), HCl, pH 3.86, 5% horse serum, contact time 6 minutes): < 31 µg/mL | MBC (ATCC6538, 0.1 h, pH 3.87, acidic composition with 1% w/v 2-ethylhexyl PO5EO6 alkylalkoxylate (Ecosurf EH6), HCl, pH 3.87, 5% horse serum, contact time 6 minutes): < 31 µg/mL | MBC (ATCC6538, pH 3.88, acidic composition with 1% w/v dodecyl dimethyl amine oxide (Empigem OB), citric acid, pH 3.88, 5% horse serum, contact time 30 seconds): 62.5 µg/mL
